From patent publication US9260429B2, “Pyrido[3,4-B]indoles and methods of use” (Medivation Technologies, Inc., priority 2008, dated 2016)

Assays:
[1] = target: T1, human recombinant histamine H1 receptor (Homo sapiens, UniProt P35367); assay: Histamine H1 radioligand binding ([3H]Pyrilamine); conditions: 1 μM; read-out: Binding data (Percentage Inhibition) Histamine Binding (1 μM) H1
T1 construct: expressed in transfected cells; host or cells: CHO cells
Procedure, shortened: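 Binding to the human recombinant histamine H1 receptor, expressed in CHO cells, was measured in a modified Tris-HCl buffer (50 mM Tris-HCl, pH 7.4, 2 mM MgCl2, 100 mM NaCl, 250 mM Sucrose). Compounds were incubated with 1.2 nM [3H]Pyrilamine for 180 minutes at 25° C, with 1 μM pyrilamine defining non-specific binding. After filtration and washing, filter counts gave percent inhibition of specific binding.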

[2] = target: T2, human recombinant adrenergic α1D receptor (Homo sapiens, UniProt P25100); assay: Adrenergic α1D radioligand binding ([3H]Prozosin); conditions: 1 h; read-out: Percent Inhibition of ligand binding Adrenergic (1 μM ligand conc.) α1D
T2 construct: expressed in transfected cells; host or cells: HEK-293 cells
T2 sequence (P25100 1-572): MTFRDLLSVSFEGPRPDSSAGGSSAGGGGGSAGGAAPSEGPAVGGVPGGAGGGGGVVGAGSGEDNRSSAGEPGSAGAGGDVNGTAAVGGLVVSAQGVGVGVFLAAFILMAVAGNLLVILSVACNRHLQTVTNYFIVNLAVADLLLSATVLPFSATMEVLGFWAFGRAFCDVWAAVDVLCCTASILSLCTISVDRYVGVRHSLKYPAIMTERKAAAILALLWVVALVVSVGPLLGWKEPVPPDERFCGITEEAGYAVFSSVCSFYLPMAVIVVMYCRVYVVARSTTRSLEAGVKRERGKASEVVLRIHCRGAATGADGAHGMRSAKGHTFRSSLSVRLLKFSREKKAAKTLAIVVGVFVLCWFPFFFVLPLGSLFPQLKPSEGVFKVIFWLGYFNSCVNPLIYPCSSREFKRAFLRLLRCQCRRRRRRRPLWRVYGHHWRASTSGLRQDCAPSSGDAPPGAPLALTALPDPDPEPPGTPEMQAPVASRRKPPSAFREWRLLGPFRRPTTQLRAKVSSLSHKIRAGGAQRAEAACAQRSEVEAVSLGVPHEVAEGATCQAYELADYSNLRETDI
Procedure, shortened: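 Membranes from HEK-293 cells expressing recombinant α1D receptor, in 50 mM Tris-HCl pH 7.4, incubated with 0.6 nM [3H]prazosin for 60 min at 25 °C; non-specific binding defined with 10 μM phentolamine. Filtration and counting.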

[3] = target: T3, human recombinant dopamine D2L receptor (Homo sapiens, UniProt P14416); assay: Dopamine D2L radioligand binding ([3H]Spiperone); conditions: 2 h, 1 μM ligand conc.; read-out: Percent Inhibition of ligand binding Dopamine (1 μM ligand conc.) D2L
T3 construct: expressed in transfected cells; host or cells: CHO cells
T3 sequence (P14416 whole entry): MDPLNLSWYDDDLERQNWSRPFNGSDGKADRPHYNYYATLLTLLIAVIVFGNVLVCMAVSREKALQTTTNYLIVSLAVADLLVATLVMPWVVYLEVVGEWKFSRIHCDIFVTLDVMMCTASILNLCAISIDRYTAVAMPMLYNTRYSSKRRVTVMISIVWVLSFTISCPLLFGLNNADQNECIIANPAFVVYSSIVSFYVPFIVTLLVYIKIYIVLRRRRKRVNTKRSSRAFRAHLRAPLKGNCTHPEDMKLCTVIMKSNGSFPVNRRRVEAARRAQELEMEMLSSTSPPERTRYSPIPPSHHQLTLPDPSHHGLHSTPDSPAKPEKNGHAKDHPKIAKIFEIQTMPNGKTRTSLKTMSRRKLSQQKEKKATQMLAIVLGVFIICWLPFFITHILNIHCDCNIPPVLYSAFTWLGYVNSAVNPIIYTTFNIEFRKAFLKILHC
Procedure, shortened: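 CHO-expressed receptor in 50 mM Tris-HCl pH 7.4 with ascorbic acid, 0.001% BSA, 150 mM NaCl; 0.16 nM [3H]spiperone, 120 min at 25 °C; nonspecific binding with haloperidol.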

[4] = target: T4, human recombinant serotonin (5-Hydroxytryptamine) 5-HT2A receptor (Homo sapiens, UniProt P28223); assay: Serotonin 5-HT2A radioligand binding ([3H]Ketanserin); conditions: 1 h; read-out: Percent Inhibition of ligand binding Serotonin (1 μM ligand concentration) 5-HT2A
T4 construct: expressed in transfected cells; host or cells: CHO-K1 cells
T4 sequence (P28223 whole entry): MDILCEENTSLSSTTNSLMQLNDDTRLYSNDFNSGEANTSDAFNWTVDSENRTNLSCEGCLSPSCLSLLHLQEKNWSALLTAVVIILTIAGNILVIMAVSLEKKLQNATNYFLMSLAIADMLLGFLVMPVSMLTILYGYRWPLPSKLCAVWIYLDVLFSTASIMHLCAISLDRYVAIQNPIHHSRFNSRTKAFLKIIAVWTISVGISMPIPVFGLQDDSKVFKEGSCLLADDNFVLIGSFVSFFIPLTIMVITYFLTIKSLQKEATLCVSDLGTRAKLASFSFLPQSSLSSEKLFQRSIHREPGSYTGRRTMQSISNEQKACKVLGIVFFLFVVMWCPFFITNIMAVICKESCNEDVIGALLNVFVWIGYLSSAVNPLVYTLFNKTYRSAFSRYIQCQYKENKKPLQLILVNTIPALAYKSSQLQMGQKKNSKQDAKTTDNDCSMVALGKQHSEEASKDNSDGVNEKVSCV
Procedure, shortened: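 Membranes from CHO-K1 cells expressing the receptor, in 50 mM Tris-HCl pH 7.4, incubated 60 min at 25° C with 0.5 nM [3H]Ketanserin; 1 μM Mianserin defines non-specific binding. Filtration and counting; values are % inhibition of specific binding at 1 μM or lower, 1% DMSO.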

[5] = target: T5, human recombinant serotonin (5-Hydroxytryptamine) 5-HT6 receptor (Homo sapiens, UniProt P50406); assay: Serotonin 5-HT6 radioligand binding ([3H]LSD); conditions: 2 h; read-out: Percent Inhibition of ligand binding Serotonin (1 μM ligand concentration) 5-HT6
T5 construct: expressed in transfected cells; host or cells: human HeLa cells
T5 sequence (P50406 whole entry): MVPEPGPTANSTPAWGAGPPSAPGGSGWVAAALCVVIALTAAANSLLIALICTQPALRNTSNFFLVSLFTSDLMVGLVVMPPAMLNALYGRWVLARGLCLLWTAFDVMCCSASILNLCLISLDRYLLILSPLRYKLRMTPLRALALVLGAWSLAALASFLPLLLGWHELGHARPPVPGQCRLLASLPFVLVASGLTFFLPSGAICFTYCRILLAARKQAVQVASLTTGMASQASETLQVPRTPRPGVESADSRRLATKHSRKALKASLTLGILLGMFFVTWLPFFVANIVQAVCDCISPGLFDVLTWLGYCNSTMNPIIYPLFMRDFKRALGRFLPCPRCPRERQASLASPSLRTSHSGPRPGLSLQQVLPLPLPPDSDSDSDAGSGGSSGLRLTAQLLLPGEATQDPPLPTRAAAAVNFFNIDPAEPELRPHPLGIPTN
Procedure, shortened: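 Human 5-HT6 receptor expressed in HeLa cells, in Tris-HCl pH 7.4 with 150 mM NaCl, ascorbic acid and BSA. Compounds at 1 μM or lower (1% DMSO) incubated 120 min at 37° C with 1.5 nM [3H]LSD. Non-specific binding defined with serotonin; filter counting gives % inhibition of specific binding.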

T1 sequence (P35367 whole entry): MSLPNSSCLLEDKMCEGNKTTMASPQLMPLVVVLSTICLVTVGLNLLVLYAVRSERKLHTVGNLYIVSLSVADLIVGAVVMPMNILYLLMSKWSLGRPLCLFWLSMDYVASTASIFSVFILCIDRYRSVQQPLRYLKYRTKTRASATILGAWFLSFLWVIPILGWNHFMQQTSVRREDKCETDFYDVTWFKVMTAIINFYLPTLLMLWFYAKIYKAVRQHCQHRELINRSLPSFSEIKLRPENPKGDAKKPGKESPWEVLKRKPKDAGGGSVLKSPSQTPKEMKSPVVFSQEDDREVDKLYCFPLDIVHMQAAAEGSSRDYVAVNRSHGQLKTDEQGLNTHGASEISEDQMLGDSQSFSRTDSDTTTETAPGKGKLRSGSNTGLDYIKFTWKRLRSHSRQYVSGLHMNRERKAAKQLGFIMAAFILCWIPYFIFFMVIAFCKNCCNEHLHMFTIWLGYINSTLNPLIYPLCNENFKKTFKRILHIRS

SMILES	inhibition at 1 µM [1] [%]	inhibition at 1 µM [2] [%]	inhibition at 1 µM [3] [%]	inhibition at 1 µM [4] [%]	inhibition at 1 µM [5] [%]
C/C(=C\n1c2c(c3cc(C)ccc31)CCN(C)C2c1ccccc1)c1ccc(Cl)cc1 (stereo not shown) [Compound 164, 9-(2-(4-chlorophenyl)prop-1-enyl)-2,6-dimethyl-1-phenyl-2,3,4,9-tetrahydro-1H-pyrido[3,4-b]indole]	12	10	-2	95	16
Cc1ccc2c(c1)c1c(n2CCc2ccc(C(F)(F)F)nc2)CN(C)CC1 [Compound 5, 9-(2-(6-(trifluoromethyl)pyridin-3-yl)ethyl)-2,3,4,9-tetrahydro-2,6-dimethyl-1H-pyrido[3,4-b]indole]	35	64	0	51	6
